Data set [1] has as its system blood pressure, femoral rate of flow. The data set is described as follows: cardiovascular action: blood pressure and femoral rate of flow, in dogs. The class given is in vivo. Particulars: i.v. The procedure: determination of the blood pressure, of the femoral rate of flow and of the heart rate, and research for an antagonism or a potentiation of the catecholamines (epinephrine norepinephrine) on said parameters, in dogs; The test materials were administered as the hydrochlorides, either intraperitoneally (or intravenously, in the course of cardiovascular tests), or orally.

Another data set relates to isolated ear artery. The data set is described as follows: action on the unstriated fibers of the isolated ear artery, in vitro. Details: species or system rabbits. Particulars: for Action on isolated arteries: at 2 × 10^-6 g/ml. The source says: (§1) research of an action on the unstriated fibers of the isolated saphena vein in dogs, and of the isolated ear artery of rabbits, in vitro.

For the next data set, the system named is isolated saphena vein. Briefly: action on the unstriated fibers of the isolated saphena vein, in vitro. On the set-up: species or system dogs. Particulars: for Action on isolated veins: at 2 × 10^-6 g/ml.
Excerpt: as §1

In data set [2] the test system is reserpine-induced palpebral ptosis. The data set is described as follows: antagonism of reserpine-induced palpebral ptosis, in rats. The class given is in vivo. Particulars: Rattus norvegicus, po, as hydrochloride. On the procedure: antagonism of reserpine-induced palpebral ptosis, in rats; The test materials were administered as the hydrochlorides, either intraperitoneally (or intravenously, in the course of cardiovascular tests), or orally.

Another data set can be described thus: acute toxicity, in mice. It is filed as in vivo. Particulars: for LD50: mouse, in vivo, mice. The procedure:
(§2) The test materials were administered as the hydrochlorides, either intraperitoneally (or intravenously, in the course of cardiovascular tests), or orally.
Acute toxicity, in mice, is low, both intraperitoneally and orally.

Data set [3] has as its system edema of the paw on subcutaneous carrageenin injection. The data set is described as follows: inhibition of edema of the paw on subcutaneous carrageenin injection, in rats. It is filed as in vivo. Particulars: Rattus norvegicus, po, read-out: Anti-inflammatory action ED50 p.o. The procedure: inhibition of edema of the paw on subcutaneous carrageenin injection, in rats; The test materials were administered as the hydrochlorides, either intraperitoneally (or intravenously, in the course of cardiovascular tests), or orally.

In data set [4] the test system is pain, in mice placed on a heating plate. Briefly: Eddy test: inhibition of pain, in mice placed on a heating plate. It is filed as in vivo. Particulars: Mus musculus, po, read-out: Analgesic action, Eddy test ED50 p.o. The procedure:
inhibition of pain, in mice placed on a heating plate (Eddy test) The test materials were administered as the hydrochlorides, either intraperitoneally (or intravenously, in the course of cardiovascular tests), or orally.

Data set [5] deals with pain contractions subsequent to intraperitoneal injection of 0.75% acetic acid. The data set is described as follows: Koster test: antagonism to pain contractions after intraperitoneal acetic acid, in mice. It is filed as in vivo. Particulars: Mus musculus, po, read-out: Analgesic action, Koster test ED50 p.o. On the procedure: antagonism to the pain contractions subsequent to intraperitoneal injection of 0.75% acetic acid, in mice (Koster test) The test materials were administered as the hydrochlorides, either intraperitoneally (or intravenously, in the course of cardiovascular tests), or orally.

For data set [6], the system named is d-amphetamine-induced stereotypes. Briefly: potentiation of d-amphetamine-induced stereotypes, in rats. It is filed as in vivo. Particulars: at 3 mg/kg, p.o. On the procedure: potentiation of d-amphetamine-induced stereotypes, in rats;
as §2

In a further data set the test system is food intake. Briefly: anorexiant effect (decreased food intake, in rats). The class given is in vivo. Particulars: at 3 mg/kg, p.o. On the procedure:
as §2
a central stimulant effect (increase of spontaneous motility, of amphetamine-induced stereotypes; of the antagonism of reserpine), sometimes accompanied by an anorexiant effect (decreased food intake, in rats);

For the next data set, the system named is hypoxic asphyxia. The data set is described as follows: cerebral protecting effect against hypoxic asphyxia under a reduced oxygen pressure. It is filed as in vivo.
The subject of data set [7] is spontaneous motor activity. The data set is described as follows: spontaneous motor activity, in mice. It is filed as in vivo. Particulars: at 3 mg/kg, p.o. The procedure: determination of the spontaneous motor activity, in mice; The test materials were administered as the hydrochlorides, either intraperitoneally (or intravenously, in the course of cardiovascular tests), or orally.

The subject of data set [8] is gastric ulcers due to stress. The data set is described as follows: inhibition of gastric ulcers due to stress, in rats. The class given is in vivo.

SMILES strings stand for the structures.

The inhibition is the share of the control response that was lost under treatment. Low values mean little suppression, high ones strong suppression. The LD50 is the dose expected to kill half of the subjects tested. Low values mean greater toxicity, high ones lower toxicity. As usually defined, the ED50 is the dose at which the effect has come halfway, by size or by number of responders. On to `Cc1nc2c(s1)CC(N)CC2.Cl` (centres unmarked) [Example 1, 2-Methyl-6-amino-4,5,6,7-tetrahydro-benzo[d]thiazole hydrochloride], for which the “Cardiovascular action: blood pressure” value in data set [1] (0.5 mg/kg) is “Hypotension”; in data set [1] (1-5 mg/kg) it was “Hypertension”. In addition, in the data set on isolated ear artery, the “Action on isolated arteries” value is listed as “Contraction”. For the same compound, the “Action on isolated veins” value with isolated saphena vein is given as “Contraction”. The compound further yielded an inhibition at 10 mg/kg in [2] of 40%. The LD50 in “acute toxicity, in mice” (ip) is < 100 mg/kg; in the data set “acute toxicity, in mice” (po) it was > 200 mg/kg. In addition, in data set [3], the ED50 turned out to be 30 mg/kg.

In the case of `CNC1CCc2nc(C)sc2C1` (centres unmarked) [Example 2, 2-Methyl-6-methylamino-4,5,6,7-benzo[d]thiazole], the “Cardiovascular action: blood pressure” value in data set [1] (0.5 mg/kg) is recorded as “Hypotension”; in data set [1] (1 mg/kg), “Hypertension”. The median effective dose (ED50) in data set [4] was 3 mg/kg; in data set [5], 30 mg/kg; in data set [3], ≤ 10 mg/kg. The “Action on amphetamine-induced stereotypes” value in data set [6] is on record as “Increase”. The “Action on isolated arteries” value with isolated ear artery is recorded as “Contraction”. In the data set with isolated saphena vein, the “Action on isolated veins” value was “Contraction”. In addition, the Anorexiant action result with food intake is “anorexiant action”. Also, the 50% lethal dose (LD50) in “acute toxicity, in mice” (ip) is ≥ 100 mg/kg; in “acute toxicity, in mice” (po) it was > 200 mg/kg.

For `CNC1CCc2ncsc2C1.Cl` (centres unmarked) [Example 3, 6-Methylamino-4,5,6,7-tetrahydro-benzo[d]thiazole hydrochloride], the “cerebral protecting effect against hypoxic asphyxia” value with hypoxic asphyxia is given as “marked cerebral protecting effect”. Further, the “Action on spontaneous motility” value in data set [7] was “Increase”. Moreover, the “Cardiovascular action: blood pressure” value in [1] (1-5 mg/kg) is “Hypertension”. In addition, the “Cardiovascular action: femoral rate of flow” value in data set [1] (1-5 mg/kg) is given as “substantial increase”. Also, the ED50 in data set [4] was ≤ 3 mg/kg; in data set [5], 5 mg/kg; in data set [3], < 30 mg/kg. In addition, the “Action on amphetamine-induced stereotypes” value in data set [6] is given as “Increase”. The “Action on the isolated artery” value in the data set on isolated ear artery (concentration not given) was 0. In addition, in the data set with isolated saphena vein (concentration not given), the “Action on the isolated vein” value is “Contraction”. Moreover, in the data set with food intake, the Anorexiant action result was “Anorexiant action”. The “inhibiting effect on the development of gastric ulcers due to stress” value in data set [8] is “potent inhibiting effect”. Besides, the “toxicity at the active dosages” value in the data set “acute toxicity, in mice” (at the active dosages) is recorded as “does not exhibit noteworthy toxicity”. Further, the LD50 was > 200 mg/kg in the data set “acute toxicity, in mice” (ip) and > 200 mg/kg in “acute toxicity, in mice” (po).

With `CNC1CCCc2scnc21` (centres unmarked) [Example 4, 4-Methylamino-4,5,6,7-tetrahydro-benzo[d]thiazole], the LD50 in the data set “acute toxicity, in mice” (ip) is > 200 mg/kg; in “acute toxicity, in mice” (po), > 200 mg/kg.

As to `NC1CCc2scnc2C1` (centres unmarked) [Example 7, 5-Amino-4,5,6,7-tetrahydro-benzo[d]thiazole], the median lethal dose (LD50) is > 200 mg/kg in the data set “acute toxicity, in mice” (ip) and > 200 mg/kg in “acute toxicity, in mice” (po).
